Consider 27 compounds from patent US9556179B2 (BRISTOL-MYERS SQUIBB COMPANY, priority 2012, dated 2017).

As usually defined, the IC50 is the concentration that inhibits the measured activity by half. Lower therefore signals greater potency.

One experiment concerns the target CK1δ (Homo sapiens (Human), UniProt P48730). Briefly: CK1δ kinase assay (Caliper LABCHIP electrophoretic separation of fluoresceinated peptide substrate and product). It is filed as biochemical. Particulars: 200 pM enzyme, 50 μM ATP, 22 hours at room temperature. In outline:
(§1)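 Reactions ran 22 hours at room temperature and were stopped with EDTA. Phosphorylated product and unphosphorylated substrate were then separated electrophoretically. Compounds were tested at eleven concentrations, and IC50 values came from non-linear regression.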

The target in the next experiment is CK1ε (Homo sapiens (Human), UniProt P49674). Kind of experiment: CK1ε kinase assay (Caliper LABCHIP electrophoretic separation of fluoresceinated peptide substrate and product). The conditions noted are these: 200 pM enzyme, 50 μM ATP, 22 hours at room temperature. It is filed as biochemical. In outline:
as §1

Each structure is given as a SMILES string. Counter-ions that a name gives are not always drawn.

Chain of CK1ε (P49674 whole entry): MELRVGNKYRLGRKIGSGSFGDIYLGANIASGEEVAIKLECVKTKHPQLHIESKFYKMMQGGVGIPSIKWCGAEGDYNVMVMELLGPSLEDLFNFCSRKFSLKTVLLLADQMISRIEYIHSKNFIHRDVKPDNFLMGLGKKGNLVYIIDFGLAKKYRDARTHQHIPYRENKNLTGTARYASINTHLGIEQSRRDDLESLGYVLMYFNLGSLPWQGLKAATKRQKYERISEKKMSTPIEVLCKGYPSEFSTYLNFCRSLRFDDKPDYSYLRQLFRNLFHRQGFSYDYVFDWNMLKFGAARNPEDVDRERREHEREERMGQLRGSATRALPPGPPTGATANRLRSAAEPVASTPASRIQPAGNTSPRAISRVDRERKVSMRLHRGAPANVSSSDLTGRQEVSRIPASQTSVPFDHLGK
Chain of CK1δ (P48730 whole entry): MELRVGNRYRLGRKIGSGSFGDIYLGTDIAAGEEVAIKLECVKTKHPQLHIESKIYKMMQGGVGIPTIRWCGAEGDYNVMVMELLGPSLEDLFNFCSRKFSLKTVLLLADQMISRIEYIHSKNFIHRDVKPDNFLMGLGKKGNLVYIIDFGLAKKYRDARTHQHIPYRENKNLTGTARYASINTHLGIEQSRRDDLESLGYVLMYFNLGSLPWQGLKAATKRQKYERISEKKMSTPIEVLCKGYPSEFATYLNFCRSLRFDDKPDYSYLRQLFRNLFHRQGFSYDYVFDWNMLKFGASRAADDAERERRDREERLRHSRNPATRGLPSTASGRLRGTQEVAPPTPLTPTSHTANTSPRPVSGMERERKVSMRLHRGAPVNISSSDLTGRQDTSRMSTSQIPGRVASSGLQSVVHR

Regarding `O=C(Nc1cn2nc(-c3c(-c4ccc(F)cc4)ncn3CCN3CCOCC3)ccc2n1)c1ccnc2ccccc12` [Compound 166, N-(6-(4-(4-fluorophenyl)-1-(2-morpholinoethyl)-1H-imidazol-5-yl)imidazo[1,2-b]pyridazin-2-yl)quinoline-4-carboxamide], the half-maximal inhibitory concentration (IC50) on CK1δ came out at 0.192 nM; on CK1ε, 1.3 nM.

In the case of `O=C(Nc1cn2nc(-c3c(-c4ccc(F)cc4)ncn3CCN3CCOCC3)ccc2n1)c1cccc(-c2cccnc2)c1` [Compound 167, N-(6-(4-(4-fluorophenyl)-1-(2-morpholinoethyl)-1H-imidazol-5-yl)imidazo[1,2-b]pyridazin-2-yl)-3-(pyridin-3-yl)benzamide], the half-maximal inhibitory concentration (IC50) is 0.104 nM against CK1δ and 0.687 nM against CK1ε.

With `O=C(Nc1cn2nc(-c3c(-c4ccc(F)cc4)ncn3CCN3CCOCC3)ccc2n1)c1ccnc(N2CCOCC2)c1` [Compound 168, N-(6-(4-(4-fluorophenyl)-1-(2-morpholinoethyl)-1H-imidazol-5-yl)imidazo[1,2-b]pyridazin-2-yl)-2-morpholinoisonicotinamide], the results for the IC50 against CK1δ and against CK1ε were 0.11 nM and 1.73 nM, respectively.

Turning to `O=C(Nc1cn2nc(-c3c(-c4ccc(F)cc4)nc4ccccn34)ccc2n1)c1cc(F)nc(F)c1` [Compound 169, 2,6-difluoro-N-(6-(2-(4-fluorophenyl)imidazo[1,2-a]pyridin-3-yl)imidazo[1,2-b]pyridazin-2-yl)isonicotinamide], the figures for the IC50 on CK1δ and at CK1ε were 0.492 nM and 5.24 nM, respectively.

Consider `O=C(Nc1cn2nc(-c3c(-c4ccc(F)cc4)nc4ccccn34)ccc2n1)c1ccc(-c2cc[nH]n2)cc1` [Compound 170, N-(6-(2-(4-fluorophenyl)imidazo[1,2-a]pyridin-3-yl)imidazo[1,2-b]pyridazin-2-yl)-4-(1H-pyrazol-3-yl) benzamide], for which the half-inhibitory concentration (IC50) came to 0.743 nM against CK1δ and 8.43 nM at CK1ε.

Turning to `Cn1ccc(-c2cccc(C(=O)Nc3cn4nc(-c5c(-c6ccc(F)cc6)nc6ccccn56)ccc4n3)c2)n1` [Compound 171, N-(6-(2-(4-fluorophenyl)imidazo[1,2-a]pyridin-3-yl)imidazo[1,2-b]pyridazin-2-yl)-3-(1-methyl-1H-pyrazol-3-yl)benzamide], the IC50 at CK1δ amounted to 1.98 nM; on CK1ε it was 7.68 nM.

Take `O=C(Nc1cn2nc(-c3c(-c4ccc(F)cc4)nc4ccccn34)ccc2n1)c1cnc2ccccc2n1` [Compound 175, N-(6-(2-(4-fluorophenyl)imidazo[1,2-a]pyridin-3-yl)imidazo[1,2-b]pyridazin-2-yl)-2-quinoxalinecarboxamide]: the half-maximal inhibitory concentration (IC50) at CK1δ came to 3.93 nM; on CK1ε, 19.3 nM.

As to `O=C(Nc1cn2nc(-c3c(-c4ccc(F)cc4)nc4ccccn34)ccc2n1)c1csnn1` [Compound 176, N-(6-(2-(4-fluorophenyl)imidazo[1,2-a]pyridin-3-yl)imidazo[1,2-b]pyridazin-2-yl)-1,2,3-thiadiazole-4-carboxamide], the concentration for half-maximal inhibition (IC50) is 5.68 nM against CK1δ and 47.4 nM against CK1ε.

On to `O=C(Nc1cn2nc(-c3c(-c4ccc(F)cc4)nc4ccccn34)ccc2n1)c1cc[nH]n1` [Compound 177, N-(6-(2-(4-fluorophenyl)imidazo[1,2-a]pyridin-3-yl)imidazo[1,2-b]pyridazin-2-yl)-1H-pyrazole-3-carboxamide], for which the IC50 against CK1δ was 6.8 nM; against CK1ε, 24.2 nM.

Take `Cc1nnsc1C(=O)Nc1cn2nc(-c3c(-c4ccc(F)cc4)nc4ccccn34)ccc2n1` [Compound 178, N-(6-(2-(4-fluorophenyl)imidazo[1,2-a]pyridin-3-yl)imidazo[1,2-b]pyridazin-2-yl)-4-methyl-1,2,3-thiadiazole-5-carboxamide]: the IC50 against CK1δ turned out to be 200 nM; against CK1ε, 1520 nM.

`Cc1cc(C(=O)Nc2cn3nc(-c4c(-c5ccc(F)cc5)nc5ccccn45)ccc3n2)on1` [Compound 179, N-(6-(2-(4-fluorophenyl)imidazo[1,2-a]pyridin-3-yl)imidazo[1,2-b]pyridazin-2-yl)-3-methyl-5-isoxazolecarboxamide]: the IC50 was 0.206 nM against CK1δ and 2.93 nM at CK1ε.

Turning to `Cn1nccc1C(=O)Nc1cn2nc(-c3c(-c4ccc(F)cc4)nc4ccccn34)ccc2n1` [Compound 180, N-(6-(2-(4-fluorophenyl)imidazo[1,2-a]pyridin-3-yl)imidazo[1,2-b]pyridazin-2-yl)-1-methyl-1H-pyrazole-5-carboxamide], the IC50 at CK1δ is 1.6 nM; against CK1ε, 12.1 nM.

Take `Cn1ccc(C(=O)Nc2cn3nc(-c4c(-c5ccc(F)cc5)nc5ccccn45)ccc3n2)n1` [Compound 181, N-(6-(2-(4-fluorophenyl)imidazo[1,2-a]pyridin-3-yl)imidazo[1,2-b]pyridazin-2-yl)-1-methyl-1H-pyrazole-3-carboxamide]: the IC50 against CK1δ came out at 4.01 nM; on CK1ε, 10.8 nM.

As to `O=C(Nc1cn2nc(-c3c(-c4ccc(F)cc4)nc4ccccn34)ccc2n1)c1cncnc1` [Compound 182, N-(6-(2-(4-fluorophenyl)imidazo[1,2-a]pyridin-3-yl)imidazo[1,2-b]pyridazin-2-yl)-5-pyrimidinecarboxamide], the results for the IC50 against CK1δ and against CK1ε were 0.53 nM and 6.13 nM, respectively.

For `N#Cc1ccc(C(=O)Nc2cn3nc(-c4c(-c5ccc(F)cc5)nc5ccccn45)ccc3n2)cn1` [Compound 183, 6-cyano-N-(6-(2-(4-fluorophenyl)imidazo[1,2-a]pyridin-3-yl)imidazo[1,2-b]pyridazin-2-yl)nicotinamide], the IC50 against CK1δ turned out to be 0.207 nM; at CK1ε, 3.82 nM.

With `O=C(Nc1cn2nc(-c3c(-c4ccc(F)cc4)nc4ccccn34)ccc2n1)c1nc2ccccc2s1` [Compound 184, N-(6-(2-(4-fluorophenyl)imidazo[1,2-a]pyridin-3-yl)imidazo[1,2-b]pyridazin-2-yl)-1,3-benzothiazole-2-carboxamide], the IC50 at CK1δ worked out at 7.53 nM; against CK1ε, 77.2 nM.

For `O=C(Nc1cn2nc(-c3c(-c4ccc(F)cc4)nc4ccccn34)ccc2n1)c1ccncc1` [Compound 186, N-(6-(2-(4-fluorophenyl)imidazo[1,2-a]pyridin-3-yl)imidazo[1,2-b]pyridazin-2-yl)isonicotinamide], the IC50 against CK1δ was found to be 10.3 nM; at CK1ε, 11.4 nM.

As for `O=C(Nc1cn2nc(-c3c(-c4ccc(F)cc4)nc4ccccn34)ccc2n1)c1csc(-c2ccncc2)n1` [Compound 187, N-(6-(2-(4-fluorophenyl)imidazo[1,2-a]pyridin-3-yl)imidazo[1,2-b]pyridazin-2-yl)-2-(pyridin-4-yl)thiazole-4-carboxamide], the results for the IC50 against CK1δ and against CK1ε were 10.5 nM and 30.3 nM, respectively.

Consider `O=C(Nc1cn2nc(-c3c(-c4ccc(F)cc4)nc4ccccn34)ccc2n1)c1csc(-c2cccnc2)n1` [Compound 188, N-(6-(2-(4-fluorophenyl)imidazo[1,2-a]pyridin-3-yl)imidazo[1,2-b]pyridazin-2-yl)-2-(pyridin-3-yl)thiazole-4-carboxamide], for which the IC50 against CK1δ came to 3.56 nM; on CK1ε, 9.8 nM.

On to `COc1ccc(-c2nc(C(=O)Nc3cn4nc(-c5c(-c6ccc(F)cc6)nc6ccccn56)ccc4n3)cs2)cc1` [Compound 189, N-(6-(2-(4-fluorophenyl)imidazo[1,2-a]pyridin-3-yl)imidazo[1,2-b]pyridazin-2-yl)-2-(4-methoxyphenyl) thiazole-4-carboxamide, 3 HCl], for which the figures for the concentration for half-maximal inhibition (IC50) on CK1δ and at CK1ε were 17.1 nM and 32.1 nM, respectively.

With `N#Cc1ccc(-c2nc(C(F)(F)F)c(C(=O)Nc3cn4nc(-c5c(-c6ccc(F)cc6)nc6ccccn56)ccc4n3)s2)cc1` [Compound 190, 2-(4-cyanophenyl)-N-(6-(2-(4-fluorophenyl)imidazo [1,2-a]pyridin-3-yl)imidazo [1,2-b]pyridazin-2-yl)-4-(trifluoromethyl)thiazole-5-carboxamide], the IC50 on CK1δ is 4.77 nM; on CK1ε it was 6.05 nM.

Regarding `O=C(Nc1cn2nc(-c3c(-c4ccc(F)cc4)nc4ccccn34)ccc2n1)c1ccccc1` [Compound 191, N-(6-(2-(4-fluorophenyl)imidazo[1,2-a]pyridin-3-yl)imidazo[1,2-b]pyridazin-2-yl)benzamide], the IC50 was found to be 2.11 nM at CK1δ and 3.02 nM against CK1ε.

Consider `CC(C)(C)C(=O)Nc1cc(C(=O)Nc2cn3nc(-c4c(-c5ccc(F)cc5)nc5ccccn45)ccc3n2)ccn1` [Compound 192, N-(6-(2-(4-fluorophenyl)imidazo[1,2-a]pyridin-3-yl)imidazo[1,2-b]pyridazin-2-yl)-2-pivalamidoisonicotinamide], for which the IC50 on CK1δ was determined as 0.096 nM; at CK1ε it was 1.06 nM.

Turning to `CN(C)c1cc(C(=O)Nc2cn3nc(-c4c(-c5ccc(F)cc5)nc5ccccn45)ccc3n2)ccn1` [Compound 193, 2-(dimethylamino)-N-(6-(2-(4-fluorophenyl)imidazo[1,2-a]pyridin-3-yl)imidazo[1,2-b]pyridazin-2-yl) isonicotinamide], the IC50 stood at 0.111 nM at CK1δ and 1.28 nM on CK1ε.

Take `Nc1cc(C(=O)Nc2cn3nc(-c4c(-c5ccc(F)cc5)nc5ccccn45)ccc3n2)ccn1` [Compound 194, 2-amino-N-(6-(2-(4-fluorophenyl)imidazo[1,2-a]pyridin-3-yl)imidazo[1,2-b]pyridazin-2-yl) isonicotinamide]: the figures for the IC50 on CK1δ and on CK1ε were 0.715 nM and 13.8 nM, respectively.

For the compound `O=C(Nc1cn2nc(-c3c(-c4ccc(F)cc4)nc4ccccn34)ccc2n1)c1ccnc(O)c1` [Compound 195, N-(6-(2-(4-fluorophenyl)imidazo[1,2-a]pyridin-3-yl)imidazo[1,2-b]pyridazin-2-yl)-2-hydroxyisonicotinamide], the IC50 against CK1δ came out at 0.603 nM; at CK1ε it was 4.87 nM.

As to `O=C(Nc1cn2nc(-c3c(-c4ccc(F)cc4)nc4ccccn34)ccc2n1)c1ccnc(F)c1` [Compound 196, 2-fluoro-N-(6-(2-(4-fluorophenyl)imidazo[1,2-a]pyridin-3-yl)imidazo[1,2-b]pyridazin-2-yl)isonicotinamide], the IC50 came out at 3.65 nM against CK1δ and 5.91 nM at CK1ε.
